The source of these data is PubChem BioAssay AID328 (DTP/NCI, 2004).

Toxic doses and inconclusive results are not listed.

The test system of this experiment is BDF1 mice, P388 leukemia ip, median survival T/C. Kind of experiment: NCI In Vivo Anticancer Drug Screen. Data for tumor model P388 Leukemia (intraperitoneal) in B6D2F1 (BDF1) mice. Particulars: endpoint: median survival time, higher = longer survival. The essentials: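 Steps: implant the tumour, treat one group with compound and another with vehicle, record survival, then divide treated by control.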

The mark [1] stands for this setting: dose: 50.0 mg/kg/injection, schedule: Q01DX009 (ip), vehicle: saline with Tween-80.
Where [2] appears, read: dose: 100.0 mg/kg/injection, schedule: Q01DX009 (ip), vehicle: saline with Tween-80.
Where [3] appears, read: dose: 200.0 mg/kg/injection, schedule: Q01DX009 (ip), vehicle: saline with Tween-80.
[4] abbreviates: dose: 100.0 mg/kg/injection, schedule: Q01DX009 (ip), vehicle: saline.
Setting [5] is: dose: 75.0 mg/kg/injection, schedule: Q04DX003 (ip), vehicle: saline with Tween-80.
Where [6] appears, read: dose: 25.0 mg/kg/injection, schedule: Q01DX009 (ip), vehicle: saline with Tween-80.
Setting [7] is: dose: 100.0 mg/kg/injection, schedule: Q04DX003 (ip), vehicle: saline with Tween-80.
Where [8] appears, read: dose: 200.0 mg/kg/injection, schedule: Q04DX003 (ip), vehicle: saline with Tween-80.
Where [9] appears, read: dose: 400.0 mg/kg/injection, schedule: Q04DX003 (ip), vehicle: saline with Tween-80.
Setting [10] is: dose: 100.0 mg/kg/injection, schedule: Q04DX003 (ip), vehicle: Klucel (hydroxypropylcellulose) (HPC).
The mark [11] stands for this setting: dose: 200.0 mg/kg/injection, schedule: Q04DX003 (ip), vehicle: Klucel (hydroxypropylcellulose) (HPC).

In the case of `CCC(=O)OCc1c(C)nc2sccn12`, the T/C is, setting by setting: (dose: 25.0 mg/kg/injection, schedule: Q01DX001 (ip), vehicle: saline) 96 % of control; (dose: 50.0 mg/kg/injection, schedule: Q01DX001 (ip), vehicle: saline) 102 % of control; (dose: 100.0 mg/kg/injection, schedule: Q01DX001 (ip), vehicle: saline) 105 % of control.

In the case of `CCN1CC2(CO)CCC(OC)C34C5CC6C(OC)CC(O)(C5C6OC)C(O)(C(OC)C23)C14` (stereo unspecified), the T/C reads like this: under setting [1], 100 % of control; under setting [2], 103 % of control; under setting [3], 100 % of control.

Take `O=C1NCN(c2ccccc2)C12CCNCC2`: the T/C (dose: 25.0 mg/kg/injection, schedule: Q01DX009 (ip), vehicle: saline) is 90 % of control; the T/C (dose: 50.0 mg/kg/injection, schedule: Q01DX009 (ip), vehicle: saline) is 113 % of control; the T/C under setting [4] is 100 % of control.

Turning to `CC(=O)c1ccccc1OCC(O)CN1CCN(c2ccccc2Cl)CC1` (stereo unspecified), the T/C was 100 % of control (dose: 37.5 mg/kg/injection, schedule: Q04DX003 (ip), vehicle: saline with Tween-80); 109 % of control under setting [5]; 90 % of control (dose: 150.0 mg/kg/injection, schedule: Q04DX003 (ip), vehicle: saline with Tween-80).

In the case of `CN(C)CCCN1c2ccc(O)cc2Sc2ccc(Cl)cc21`, the T/C was 90 % of control (dose: 3.1 mg/kg/injection, schedule: Q01DX009 (ip), vehicle: other); 90 % of control (dose: 6.2 mg/kg/injection, schedule: Q01DX009 (ip), vehicle: other); 104 % of control (dose: 12.5 mg/kg/injection, schedule: Q01DX009 (ip), vehicle: other); 109 % of control (dose: 25.0 mg/kg/injection, schedule: Q01DX009 (ip), vehicle: other); 91 % of control under setting [6]; 91 % of control under setting [1]. Further, the T/C under setting [2] is 100 % of control.

Turning to `Cc1sc2c(c1-c1ccccc1)C(=O)CCCN2`, the T/C (dose: 25.0 mg/kg/injection, schedule: Q01DX005 (ip), vehicle: saline with Tween-80) was 108 % of control; the T/C (dose: 50.0 mg/kg/injection, schedule: Q01DX005 (ip), vehicle: saline with Tween-80) is 101 % of control; the T/C (dose: 50.0 mg/kg/injection, schedule: Q04DX003 (ip), vehicle: saline with Tween-80) was 107 % of control; the T/C (dose: 100.0 mg/kg/injection, schedule: Q01DX005 (ip), vehicle: saline with Tween-80) was 118 % of control; the T/C under setting [7] was 107 % of control; the T/C (dose: 200.0 mg/kg/injection, schedule: Q01DX005 (ip), vehicle: saline with Tween-80) is 118 % of control. Besides, the T/C was 105 % of control under setting [8] and 105 % of control under setting [9].

For the molecule `CCCCCCCCCCCCOc1ccc(C=O)cc1OC`, the T/C is 100 % of control (dose: 100.0 mg/kg/injection, schedule: Q01DX001 (ip), vehicle: Klucel (hydroxypropylcellulose) (HPC)); 90 % of control (dose: 200.0 mg/kg/injection, schedule: Q01DX001 (ip), vehicle: Klucel (hydroxypropylcellulose) (HPC)); 100 % of control (dose: 400.0 mg/kg/injection, schedule: Q01DX001 (ip), vehicle: Klucel (hydroxypropylcellulose) (HPC)).

On to `C=CCSc1nc(N)nc2nc[nH]c12`, for which the T/C by setting is: (dose: 100.0 mg/kg/injection, schedule: Q01DX009 (ip), vehicle: saline sonified) 110 % of control; under setting [7], 104 % of control; under setting [8], 100 % of control; under setting [9], 109 % of control.

Take `O=[N+]([O-])c1ccc(NCc2ccccc2)nc1`: the T/C was 107 % of control under setting [6], 109 % of control under setting [1] and 114 % of control under setting [2].

For `COC(=O)CCC(=O)/C=C1/Nc2ccccc2C1=O`, the T/C was 90 % of control (dose: 50.0 mg/kg/injection, schedule: Q04DX003 (ip), vehicle: saline); 110 % of control (dose: 100.0 mg/kg/injection, schedule: Q04DX003 (ip), vehicle: saline); 120 % of control (dose: 200.0 mg/kg/injection, schedule: Q04DX003 (ip), vehicle: saline).

For `O=C(O)C(/C=N\Nc1ccccc1)=N\Nc1ccccc1`, the T/C was 110 % of control (dose: 37.5 mg/kg/injection, schedule: Q01DX009 (ip), vehicle: saline with Tween-80); 115 % of control (dose: 75.0 mg/kg/injection, schedule: Q01DX009 (ip), vehicle: saline with Tween-80); 118 % of control (dose: 150.0 mg/kg/injection, schedule: Q01DX009 (ip), vehicle: saline with Tween-80).

In the case of `CCCCCCCCCCC[CH2][Hg][CH2]CCCCCCCCCCC`, the T/C is, setting by setting: under setting [10], 91 % of control; under setting [11], 100 % of control.

As for `[O-]/[N+](=C\C=C\c1ccccc1)c1ccccc1`, the T/C runs as follows: under setting [10], 100 % of control; under setting [11], 86 % of control; (dose: 400.0 mg/kg/injection, schedule: Q04DX003 (ip), vehicle: Klucel (hydroxypropylcellulose) (HPC)) 90 % of control.

As to `CC(C)(C)CC(=O)OCCC[N+](C)(C)[O-]`, the T/C is, setting by setting: (dose: 100.0 mg/kg/injection, schedule: Q01DX005 (ip), vehicle: water) 100 % of control; (dose: 200.0 mg/kg/injection, schedule: Q01DX005 (ip), vehicle: water) 100 % of control.

`N=C(Oc1ccccc1)c1ccccc1`: the T/C under setting [1] is 100 % of control, the T/C under setting [2] was 102 % of control and the T/C under setting [3] is 102 % of control.

In the case of `CCC(/C=C\C(C)C1CCC2C3CC=C4CC(O)CCC4(C)C3CCC12C)C(C)C` (stereo unspecified), the T/C is 104 % of control (dose: 50.0 mg/kg/injection, schedule: Q01DX010 (ip), vehicle: saline); 108 % of control (dose: 100.0 mg/kg/injection, schedule: Q01DX010 (ip), vehicle: saline); 100 % of control (dose: 200.0 mg/kg/injection, schedule: Q01DX010 (ip), vehicle: saline); 91 % of control (dose: 400.0 mg/kg/injection, schedule: Q01DX010 (ip), vehicle: saline).

As to `OC(O)C(F)(F)F`, the T/C is 100 % of control (dose: 15.0 mg/kg/injection, schedule: Q04DX003 (ip), vehicle: saline with Tween-80); 100 % of control (dose: 30.0 mg/kg/injection, schedule: Q04DX003 (ip), vehicle: saline with Tween-80); 95 % of control (dose: 60.0 mg/kg/injection, schedule: Q04DX003 (ip), vehicle: saline with Tween-80); 104 % of control under setting [7]; 113 % of control under setting [8]; 104 % of control under setting [9].

Regarding `CC(CCl)OC(C)CCl` (stereo unspecified), the T/C (dose: 100.0 mg/kg/injection, schedule: Q04DX002 (ip), vehicle: saline) is 106 % of control; the T/C (dose: 200.0 mg/kg/injection, schedule: Q04DX002 (ip), vehicle: saline) was 107 % of control; the T/C (dose: 400.0 mg/kg/injection, schedule: Q04DX002 (ip), vehicle: saline) was 107 % of control.

As to `OC(CI)C(O)C(O)C(O)CI` (stereo unspecified), the T/C was 108 % of control under setting [2]; 102 % of control under setting [4]; 102 % of control under setting [3]; 109 % of control (dose: 200.0 mg/kg/injection, schedule: Q01DX009 (ip), vehicle: saline); 150 % of control (dose: 300.0 mg/kg/injection, schedule: Q01DX009 (ip), vehicle: saline with Tween-80); 122 % of control (dose: 400.0 mg/kg/injection, schedule: Q01DX009 (ip), vehicle: saline with Tween-80). The T/C by setting is: (dose: 400.0 mg/kg/injection, schedule: Q01DX009 (ip), vehicle: saline) 109 % of control; (dose: 600.0 mg/kg/injection, schedule: Q01DX009 (ip), vehicle: saline) 118 % of control.

For the molecule `Cc1ccc(CNc2ccc(C)c(Cl)c2)cc1`, the T/C was 104 % of control (dose: 100.0 mg/kg/injection, schedule: Q01DX009 (ip), vehicle: other); 113 % of control (dose: 200.0 mg/kg/injection, schedule: Q01DX009 (ip), vehicle: other); 118 % of control (dose: 400.0 mg/kg/injection, schedule: Q01DX009 (ip), vehicle: other).

As to `BrCC1CCCO1` (stereo unspecified), the T/C reads like this: under setting [6], 101 % of control; under setting [1], 110 % of control.

For `O=NN(CCCl)C(=O)NC1CC2CCC1C2` (stereo unspecified), the T/C (dose: 33.0 mg/kg/injection, schedule: Q04DX003 (ip), vehicle: saline with Tween-80) was 272 % of control and the T/C under setting [5] was 113 % of control.
